Experimental data: US20140377216A1, “ANTICANCER FUSION PROTEIN” (ADAMED SP. Z.O.O., priority 2011, published 2014)

Key:
human lung cancer A549 = assay: Lung cancer model, Experiment A: A549 xenograft; type: in vivo; settings: A549, Cby.Cg-foxn1(nu)/J mice; 20 mg/kg i.v. 6 times every second day; 35 day
Method: (§1) Tumor size was measured using electronic calliper, tumor volume was calculated using the formula: (a^2×b)/2, where a=shorter diagonal of the tumor (mm) and b=longer diagonal of the tumor (mm). Inhibition of tumor growth was calculated using the formula:
(§2) TGI[%](Tumor growth inhibition)=(WT/WC)×100−100%
(§3) wherein WT is the average tumor volume in the treatment group, and WC is the average tumor volume in the control group.
On day 0 Cby.Cg-foxn1(nu)/J mice were grafted subcutaneously (s.c.) in the right side with 5×10^6 of A549 cells suspended in 0.1 ml of the mixture HBSS:Matrigel 4:1 using syringe with a needle 0.5×25 mm (Bogmark). On the 19 day of the experiment mice were randomized to obtain the average size of tumors in the group of ˜75 mm3 and assigned to treatment groups. The treatment groups were administered with the preparations of fusion protein of the invention of Ex. 11^a (15 mg/kg), and rhTRAIL114-281 (20 mg/kg) as a comparison and water for injections as a control. The preparations were administered intravenously (i.v) 6 times once daily every second day. On the 35 day of the experiment mice were sacrificed by disruption of the spinal cord.

[1] = test system: human lung cancer NCI-H460-Luc2; assay: Lung cancer model, Experiment C: NCI-H460-Luc2 xenograft; type: in vivo, Crl:SHO-PrkdcscidHrhr mice; settings: 20 mg/kg i.v. 6 times every second day, 29 day
Method: as §1, §2, §3
On day 0 Crl:SHO-Prkdc^scidHr^hr mice were grafted subcutaneously (s.c.) in the right side with 5×10^6 of NCI-H460-Luc2 cells suspended in 0.1 ml of HBSS buffer using syringe with a needle 0.5×25 mm (Bogmark). On the 11 day of the experiment mice were randomized to obtain the average size of tumors in the group of ˜100-120 mm^3 and assigned to treatment groups. The treatment groups were administered with the preparations of fusion protein of the invention of Ex. 11^a (40 mg/kg and 30 mg/kg), and rhTRAIL114-281 (20 mg/kg) as a comparison against formulation buffer (19 mM NaH2PO4, 81 mM Na2HPO4, 50 mM NaCl, 5 mM glutathione, 0.1 mM ZnCl2, 10% glycerol, pH 7.4) as a control. The preparations were administered intravenously (i.v) 6 times once daily every second day (in case of fusion protein of the invention of Ex. 11^a first administration at a dose 40 mg/kg and subsequent at 30 mg/kg. On the 29 day of the experiment mice were sacrificed by disruption of the spinal cord.

[2] = test system: human colon cancer HCT116; assay: Colon cancer model, Experiment A: HCT116 xenograft; type: in vivo, Crl:SHO-PrkdcscidHrhr mice; settings: 20 mg/kg i.v. 6 times every second day, 32 day
Method: as §1, §2, §3
On day 0 Crl:SHO-Prkdc^scidHr^hr mice were grafted subcutaneously (s.c.) in the right side with 5×10^6 of HCT116 cells suspended in 0.1 ml of HBSS buffer using syringe with a needle 0.5×25 mm (Bogmark). On the 18 day of the experiment mice were randomized to obtain the average size of tumors in the group of −400 mm^3 and assigned to treatment groups. The treatment groups were administered with the preparations of fusion protein of the invention of Ex. 11^a (35 mg/kg), and rhTRAIL114-281 (20 mg/kg) as a comparison against formulation buffer (5 mM NaH2PO4, 95 mM Na2HPO4, 200 mM NaCl, 5 mM glutathione, 0.1 mM ZnCl2, 10% glycerol, 80 mM saccharose, pH 8.0) as a control. The preparations were administered intravenously (i.v) 6 times once daily every second day. On the 32 day of the experiment mice were sacrificed by disruption of the spinal cord.

[3] = test system: multidrug resistant human uterine sarcoma MES-SA/Dx5; assay: Multidrug resistant uterine sarcoma model: MES-SA/Dx5 xenograft; type: in vivo, Crl:SHO-PrkdcscidHrhr mice; settings: 10 mg/kg i.v. 6 times every second day, 35 day
Method: as §1, §2, §3
On day 0 Crl:SHO-Prkdc^scidHr^hr mice were grafted subcutaneously (s.c.) in the right side with 7×10^6 of MES-SA/Dx5 cells suspended in 0.1 ml of the mixture HBSS:Matrigel 10:1 using syringe with a needle 0.5×25 mm (Bogmark). On the 19 day of the experiment mice were randomized to obtain the average size of tumors in the group of −180 mm^3 and assigned to treatment groups. The treatment groups were administered with the preparation of fusion protein of the invention of Ex. 11^a (30 mg/kg) and rhTRAIL114-281 (10 mg/kg) as a comparison against formulation buffer (19 mM NaH2PO4, 81 mM Na2HPO4, 50 mM NaCl, 5 mM glutathione, 0.1 mM ZnCl2, 10% glycerol, pH 7.4) as a control. Preparations were administered intravenously (i.v.) 6 times once daily every second day. On the 35 day of the experiment mice were sacrificed by disruption of spinal cord.

human liver cancer HepG2 = assay: Liver cancer model, Experiment A: HepG2 xenograft; type: in vivo, Crl:SHO-PrkdcscidHrhr mice; settings: 50 mg/kg i.v. six times every second day, 42th day
Method: as §1, §2, §3
On day 0 Crl:SHO-Prkdc^scidHr^hr mice were grafted subcutaneously (s.c.) in the right flank region with 7×10^6 of HepG2 cells suspended in 0.1 ml of the 3:1 mixture HBSS buffer:Matrigel using syringe with a 0.5×25 mm needle (Bogmark). When tumors reached the size of 64-529 mm^3 (day 25), mice were randomized to obtain the average size of tumors in the group of −230 mm^3 and assigned to treatment groups. The treatment groups were administered with the preparations of fusion protein of the invention of Ex. 16^b (80 mg/kg) and rhTRAIL114-281 (50 mg/kg) as a comparison and reference compound 5-FU (5-Fluorouracil, Sigma-Aldrich) (20 mg/kg). The preparations were administered intravenously (i.v.) six times every second day, 5-FU was applied intraperitoneally (i.p.). The control group received formulation buffer.
When the therapeutic group reached the average tumor size of ˜1000 mm^3, mice were sacrificed by cervical dislocation.

Substance: rhTRAIL114-281: recombinant human soluble TRAIL, amino acids 114-281 of hTRAIL, used as comparative reference
- TGI (tumor growth inhibition) relative to the control (human lung cancer A549): 0%
- TGI (tumor growth inhibition) relative to the control [1]: 76%
- TGI (tumor growth inhibition) relative to the control [2]: 5.6%
- TGI (tumor growth inhibition) relative to the control [3]: 29%
- TGI (tumor growth inhibition) relative to the control (human liver cancer HepG2): 23.2%
